Two compounds from US20220332710A1, “SOLID FORMS OF A GLYT1 INHIBITOR” (Boehringer Ingelheim International GmbH, priority 2019, published 2022) can be followed below.

The data set can be described thus: Water sorption isotherm (dynamic vapor sorption). It counts as physicochemical. The note with it: 25° C., maintained at 90% relative humidity for 6 hours under humid nitrogen purge. The method, then: FIG. 11 is a water sorption isotherm showing the water-uptake of Form II of Coumpound 1 and amorphous Coumpound 1 when stored at 25° C. at different relative humidities.
As discussed above, the invention relates to crystalline forms of Coumpound 1 described herein as Form I, Form II, or Form III; and mixtures of at least two of Form I, Form II, or Form III (“the crystalline compounds of the invention”). WO2013017657 makes no mention of any crystalline form of Compound, any method for preparing a crystalline form of Coumpound 1, or any of the properties of the crystalline forms of Coumpound 1 described herein. The compounds of the invention have advantageous properties (e.g., improved stability and reproducibility) as compared to the amorphous form of Coumpound 1 described in Example 1 herein and WO2013017657. Improvements over the amorphous form include, for example, lower hygroscopicity and decreased tendency to convert to a different solid form. For example, the water-uptake of amorphous Coumpound 1 at 25° C. is 1.4% when maintained at 90% relative humidity for 6 hours under humid nitrogen purge. […]
Water sorption isotherms are determined using a dynamic vapor sorption system (Advantage, DVS, London, UK). […]

`CC(Oc1ccc(S(C)(=O)=O)cc1C(=O)N1CC2C[C@]2(c2cc(C(F)(F)F)on2)C1)C(F)(F)F` (some centres unmarked) [amorphous Coumpound 1] yielded a water-uptake of 1.4%. Next, `CC(Oc1ccc(S(C)(=O)=O)cc1C(=O)N1CC2C[C@]2(c2cc(C(F)(F)F)on2)C1)C(F)(F)F` (some centres unmarked) [Form II of Coumpound 1]: “about 0.04%”.
